What all share (assay type): cell-based
Assay [1] deals with Colon HT29 (MMR proficient). Description: MTT assay for 7-day toxicity assay. Particulars: Homo sapiens, HT-29, 168 h, Colon HT29 (MMR proficient); 7-day MTT; single determinations; read-out: GI50. How it is done:
(§1) The cell culture techniques were carried out in a Class II microbiological safety cabinet which was swabbed with 70% IMS in distilled water before each use. Glioma cells were routinely cultured in Costar tissue culture flasks in RPMI 1640 liquid medium (containing 0.3 g/L L-glutamine and 2 g/L sodium bicarbonate) supplemented with 10% heat inactivated FBS (55-59° C.) for 1 hour to denature complement proteins which would otherwise evoke a cellular immune response resulting in cell lysis, 1% non-essential amino acids, 50 μg/mL gentamicin and 400 μg/mL G418 (vector selected reagent). Colorectal and melanoma cells were maintained in RPMI 1640 supplemented with 10% FBS. MRC-5 cells were cultured in EMEM. Cells were grown in a humidified incubator containing 5% CO2 at 37° C. Cells were sub-cultured when growth exceeded approximately 80% confluence, normally twice weekly. The medium was aspirated from the flask and approximately 0.8 mL trypsin-EDTA 1× solution added. The cells were re-incubated at 37° C. until they visibly detached from the flask. The cell suspension was then re-suspended in 5 mL medium and 0.5-1 mL of the cell suspension was transferred to a new flask (25 cm^2) with 7 mL culture medium. The cells were further incubated at 37° C. incubator. Cells were disposed after passage nearly 30 times in order to minimize phenotypic drift. New batches of cells were taken from liquid nitrogen storage by thawing rapidly (37° C. water bath) and re-suspension in a 25 cm^2 flask with 10 mL of culture medium. Two passages were allowed to resume normal growth. For long-term maintenance, viable cells at 60-80% confluence were detached by minimum amount of trypsin/EDTA and re-suspended in sterile filtered freezing medium (95% FBS, 5% DMSO), transferred to sterile cryogenic vials, and frozen overnight at −20° C. followed by −80° C. for 1-2 days and stored in liquid nitrogen for long term storage.
(§2) Most test compounds, including temozolomide, were prepared as stock solution (100 mM) in DMSO and stored at −20° C. for not more than 6 months.
(§3) This assay was first described in Mosmann, T., 1983, “Rapid colorimetric assay for cellular growth and survival: Application to proliferation and cytotoxicity assays”, Journal of Immunological Methods, Vol. 65, Nos. 1-2, pp. 55-63.
(§4) Glioma cell lines, SNB19 and U373, both MGMT transfected (i.e., SNB19M and U373M) and vector controls (i.e., SNB19V and U373V); colorectal carcinoma cell lines, HCT116, HT29, and DLD1; melanoma cell line, SKMEL-28; breast cell line, MCF-7; and normal human fetal lung fibroblast cell line, MRC-5; were harvested at 60-80% confluence—during the logarithmic phase of growth.
(§5) Following harvesting, cells in suspension were gently syringed through a 23 gauge needle to obtain a near-single cell suspension. The desired cell seeding densities were used and added into 96-well plates in 180 μL culture medium if only one test compound was to be added, or 160 μL if two test compounds were to be added in combination, which were allowed to attach at 37° C. (5% CO2) overnight. For the 7 day assay, the cell seeding density for different cell lines was as follows: SNB19V, SNB19M: 650 cells/well; U373V, U373M: 650 cells/well; SNB19VR, U373VR: 650 cells/well; HCT116, DLD-1, SKMEL-28, MRC-5, MCF-7: 400 cells/well.
(§6) The two peripheral lanes were used as blank wells (cell free) and filled with 200 μL of medium in order to minimise medium evaporation from the plate. A separate time zero (T0) plate was set up alongside other plates. Serial dilutions in tissue culture medium of a 100 mM stock of test compound in DMSO were prepared immediately before each assay to ten times the final concentrations required, and then 20 μL was added to each well (200 μL total media per well) to achieve final concentrations of 0.5 μM, 1 μM, 5 μM, 10 μM, 50 μM, 100 μM, 500 μM, and 1000 μM. A minimum of four wells received the same test compound concentration. […]
For orientation: Tetrazolium dyes change colour on reduction, which living cells bring about.

The test system of assay [2] is Melanoma SKMEL-28 (MMR proficient). Briefly: MTT assay for 7-day toxicity assay. The settings on record: Homo sapiens, SK-MEL-28, 168 h, Melanoma SKMEL-28 (MMR proficient); 7-day MTT; single determinations; read-out: GI50. The method, then: as §1, §2, §3, §4, §5, §6
The test system of assay [3] is Breast MCF-7 (MMR proficient). Description: MTT assay for 7-day toxicity assay. Particulars: Homo sapiens, MCF7, 168 h; Breast MCF-7 (MMR proficient); 7-day MTT; single determinations; read-out: GI50. The method, then: as §1, §2, §3, §4, §5, §6
For assay [4], the system named is Colon HCT116 (MMR mutated). Description: MTT assay for 7-day toxicity assay. Particulars: Colon HCT116 (MMR mutated), 7-day MTT, single determinations, read-out: GI50. The method, then: as §1, §2, §3, §4, §5, §6
The subject of assay [5] is Normal Human Fetal Lung Fibroblast MRC-5. Description: MTT assay for 7-day toxicity assay. The settings on record: Homo sapiens, MRC5, 168 h, Normal Human Fetal Lung Fibroblast MRC-5; 7-day MTT; single determinations; read-out: GI50. The method, then: as §1, §2, §3, §4, §5, §6
Assay [6] deals with Glioma SNB19VR (MGMT−) (TMZ resistant). Briefly: MTT assay for 7-day toxicity assay. Particulars: 168 h, Glioma SNB19VR (MGMT−, TMZ resistant); 7-day MTT; single determinations; read-out: GI50. How it is done:
as §1, §2, §3, §4, §5, §6

The test system of assay [7] is Glioma U373VR (MGMT low) (TMZ resistant). Description: MTT assay for 7-day toxicity assay. The settings on record: 168 h, Glioma U373VR (MGMT low, TMZ resistant); 7-day MTT; single determinations; read-out: GI50. The method, then: as §1, §2, §3, §4, §5, §6
A further assay deals with Glioma SNB19M (MGMT+). Description: MTT assay for 7-day toxicity assay. Particulars: Glioma SNB19M (MGMT+), read-out: GI50. The essentials:
(§7)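 MGMT-transfected or vector-control glioma cells were seeded at 650 cells/well, attached overnight, and exposed for 7 days at 37 °C to compound at final 0.5–1000 μM. Viability was read by MTT (0.4 mg/mL, 4 h) formazan absorbance, with a day-0 plate included.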

The subject of the next assay is Glioma U373M (MGMT+). Description: MTT assay for 7-day toxicity assay. The settings on record: Glioma U373M (MGMT+), 7-day MTT, single determinations, read-out: GI50. The essentials:
as §7

The test system of another assay is Glioma U373V (MGMT low). Description: MTT assay for 7-day toxicity assay. The settings on record: Glioma U373V (MGMT low), 7-day MTT, single determinations, read-out: GI50. The essentials: as §7
A further assay deals with Glioma SNB19V (MGMT−). Description: MTT assay for 7-day toxicity assay. Particulars: Glioma SNB19V (MGMT−), read-out: GI50. In outline:
as §7

In assay [8] the test system is glioma MGMT− and MGMT+ cell lines. Briefly: MTT assay, glioma lines as a whole. Particulars: for activity in words: glioma MGMT− and MGMT+ cell lines.
Excerpt: as §3, §4, §5
(§8) The two peripheral lanes were used as blank wells (cell free) and filled with 200 μL of medium in order to minimise medium evaporation from the plate. A separate time zero (T0) plate was set up alongside other plates. Serial dilutions in tissue culture medium of a 100 mM stock of test compound in DMSO were prepared immediately before each assay to ten times the final concentrations required, and then 20 μL was added to each well (200 μL total media per well) to achieve final concentrations of 0.5 μM, 1 μM, 5 μM, 10 μM, 50 μM, 100 μM, 500 μM, and 1000 μM. A minimum of four wells received the same test compound concentration. To control wells, including those in the T0 plate, 20 μL of medium was added. Previous assays had been carried out to verify that cell viability was not affected by the amount of DMSO added into the test compound-treated wells. A separate plate treated in the same way, but free of test compound, was used as a measure of cell viability at the time of drug addition (day 0).
(§9) After incubation at 37° C., 5% CO2 for 7 days (or immediately for the day 0 plate), cell viability was quantified using the MTT assay. 50 μL of sterile filtered MIT (3-(4,5-dimethylthiazol-2-yl)-2,5-diphenyltetrazolium bromide) (2 mg/mL in phosphate buffered saline) were added to each well (final concentration 0.4 mg/mL) and the plates were re-incubated for 4 hours to allow metabolic conversion of MTT by dehydrogenases in viable cells to insoluble formazan crystals. The medium and any unconverted MTT was aspirated, 150 μL of DMSO was added to each well, and the plates were shaken on a plate shaker (Stuart Scientific 503) to ensure complete formazan solubilisation.
(§10) The intensity of absorbance is directly proportional to cell viability. A linear relationship exists between cell number and the amount of formazan and so the mean absorbance determined for each well of the same concentration can be used as a quantitative measure of viable cells compared to the controls. A graph of absorbance against drug concentration was plotted and the test compound concentration (GI50) causing 50% inhibition of control cell growth (absorbance increase from day 0) was calculated by interpolation.

For assay [9], the system named is range of other cell lines (e.g., colon, melanoma). Description: MTT assay, other cell lines. The settings on record: other lines (e.g., colon, melanoma).
Excerpt: as §3, §4, §5, §8, §9, §10

Setting [10] is: 168 h, 7-day MTT, single determinations.
Where [11] appears, read: 7-day MTT, single determinations.

“And” between values parts separate entries of the source, which are not always exact repeats. Identical values can stand only once. Like-named read-outs stand apart in the source and are kept apart here.

As to `COc1cccc(Cn2nnc3c(C(N)=O)ncn3c2=O)c1` [AA-003, 3-(3-Methoxybenzyl)-4-oxo-3,4-dihydroimidazo[5,1-d][1,2,3, 5]tetrazine-8-carboxamide], the GI50 in [1] is 345 µM; in assay [2], 422 µM; in assay [3], 316 µM; in assay [4] it was 280 µM; in [4] (Homo sapiens, HCT-116, 168 h), 309 µM.
`CC[C@@H](c1ccccc1)n1nnc2c(C(N)=O)ncn2c1=O` [BB-004, (S)-3-(-1-Phenylpropyl)-8-carbamoylimidazotetrazin-4-one]: the GI50 is 189 µM in [5]; 29.1 µM in assay [6]; 35.8 µM in assay [7]; 48.4 µM in the assay with Glioma SNB19M (MGMT+) (setting [10]); 60 µM in the assay with Glioma SNB19M (MGMT+) (setting [11]); 63.1 µM in the assay with Glioma U373M (MGMT+) (168 h). Also, the GI50 is 99.4 µM in the assay with Glioma U373M (MGMT+); 84.3 µM in the assay with Glioma U373V (MGMT low) (168 h); 72.8 µM with Glioma U373V (MGMT low); 52.4 µM in the assay on Glioma SNB19V (MGMT−) (setting [10]); 65.8 µM in the assay on Glioma SNB19V (MGMT−) (setting [11]).
For `NC(=O)Cn1nnc2c(C(N)=O)ncn2c1=O` [JJ-001, 2-(8-Carbamoyl-oxoimidazo[5,1-d][1,2,3,5]tetrazin-3(4H)-yl)ethanamide], the GI50 in the assay on Glioma SNB19M (MGMT+) (setting [10]) was 107 µM; in the assay on Glioma SNB19M (MGMT+) (setting [11]), 83.2 µM; in the assay on Glioma U373M (MGMT+) (168 h), 86.7 µM; in the assay with Glioma U373M (MGMT+), 58 µM; with Glioma U373V (MGMT low) (168 h), 56.2 µM; with Glioma U373V (MGMT low), 74.6 µM. In addition, the GI50 in the assay on Glioma SNB19V (MGMT−) (setting [10]) worked out at 37.5 µM; in the assay with Glioma SNB19V (MGMT−) (setting [11]), 38.5 µM. The activity in words result in assay [8] is “good activity”.
Take `CCOC(=O)CCn1nnc2c(C(N)=O)ncn2c1=O` [LL-002, Ethyl 3-(8-carbamoyl-oxoimidazo[5,1-d][1,2,3,5]tetrazin-3(4H)-yl)propanoate]: the GI50 in the assay on Glioma SNB19M (MGMT+) (setting [10]) came out at 248 µM; in the assay with Glioma SNB19M (MGMT+) (setting [11]) it was 261 µM; in the assay with Glioma U373M (MGMT+) (168 h), 156 µM; in the assay with Glioma U373M (MGMT+), 131 µM; in the assay with Glioma SNB19V (MGMT−) (setting [10]), 447 µM; in the assay with Glioma SNB19V (MGMT−) (setting [11]), 288 µM. Moreover, in [8] (Table 10, glioma cell lines), the “fold less active than the acetic acid ester derivatives LL-003 and PX-016” value was above 10 fold.
As for `COC(=O)Cn1nnc2c(C(N)=O)ncn2c1=O` [LL-003, Methyl 2-(8-carbamoyl-4-oxoimidazo[5,1-d][1,2,3,5]tetrazin-3(4H)-yl)acetate], the GI50 with Glioma SNB19M (MGMT+) (setting [10]) was 34.8 µM; in the assay on Glioma SNB19M (MGMT+) (setting [11]), 33.5 µM; in the assay with Glioma U373M (MGMT+) (168 h) it was 25.4 µM; in the assay with Glioma U373M (MGMT+), 33.7 µM; with Glioma U373V (MGMT low) (168 h), 9.6 µM; in the assay on Glioma U373V (MGMT low), 11.6 µM. In addition, the GI50 worked out at 21.3 µM in the assay on Glioma SNB19V (MGMT−) (setting [10]) and 29.7 µM in the assay on Glioma SNB19V (MGMT−) (setting [11]). Further, the activity in words result in assay [8] was “surprising efficacy”.
With `CS(=O)(=O)CCn1nnc2c(C(N)=O)ncn2c1=O` [UU-001, 3-(2-Methanesulfonyl-ethyl)-4-oxo-3,4-dihydro-imidazo[5,1-d][1,2,3,5]tetrazine-8-carboxylic acid amide], in the assay on Glioma SNB19V (MGMT−), the 50% growth inhibitory concentration (GI50) is 92.4 µM and 154 µM. Moreover, the activity in words result in [8] and in [9] was “surprising efficacy” in each case.
In the case of `CS(=O)(=O)Cn1nnc2c(C(N)=O)ncn2c1=O` [UU-002, 3-Methanesulfonylmethyl-4-oxo-3,4-dihydro-imidazo[5,1-d][1,2,3,5]tetrazine-8-carboxylic acid amide], the GI50 in the assay with Glioma SNB19M (MGMT+) was 14.5 µM and 13.7 µM and 26.6 µM. The activity in words result in assay [8] and in [9] was “surprising efficacy” throughout.

As usually defined, the GI50 is the concentration giving 50% growth inhibition.
